Reference: ChEMBL document CHEMBL1201862, “PubChem BioAssay data set” (2004)
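Interpolation was linear, between the two tested concentrations surrounding the appropriate level; five concentrations were tested over 48 hours in 96-well plates. At the GI50, growth is halved.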 Active and inactive are the calls of the source. Cut-off read from the data, not from the text of the source: active = GI50 up to about 1.1 µM and inactive = higher.

How the values were obtained:
Assay in all cases: NCI tumour cell line growth inhibition, 48 h
786-0 = system: 786-0
HL-60 = system: HL-60
HOP-62 = system: HOP-62
HT-29 = system: HT-29
KM12 = system: KM12
MOLT-4 = system: MOLT-4
Malme-3M = system: Malme-3M
NCI-H23 = system: NCI-H23
NCI-H522 = system: NCI-H522
SK-MEL-5 = system: SK-MEL-5
SK-OV-3 = system: SK-OV-3
SNB-19 = system: SNB-19
TK-10 = system: TK-10
U-251 = system: U-251
UO-31 = system: UO-31
SNB-75 = system: SNB-75

| SMILES | GI50 (786-0) | GI50 (HL-60) | GI50 (HOP-62) | GI50 (HT-29) | GI50 (KM12) | GI50 (MOLT-4) | GI50 (Malme-3M) | GI50 (NCI-H23) | GI50 (NCI-H522) | GI50 (SK-MEL-5) | GI50 (SK-OV-3) | GI50 (SNB-19) | GI50 (TK-10) | GI50 (U-251) | GI50 (UO-31) | GI50 (SNB-75) |
| --- | --- | --- | --- | --- | --- | --- | --- | --- | --- | --- | --- | --- | --- | --- | --- | --- |
| Cc1nn2c3c(nnc2c1C#N)C(=O)NN=C(N)S3 | > 100 µM (inactive) | > 100 µM (inactive) | > 100 µM (inactive) | > 100 µM (inactive) | > 100 µM (inactive) | > 100 µM (inactive) | > 100 µM (inactive) | > 100 µM (inactive) | > 100 µM (inactive) | > 100 µM (inactive) | > 100 µM (inactive) | > 100 µM (inactive) | > 100 µM (inactive) | > 100 µM (inactive) | > 100 µM (inactive) |  |
| FC(F)(F)c1nc(-c2ccccc2Cl)[nH]c1C(F)(F)F | 1.08 µM (active) | 0.406 µM (active) | 0.394 µM (active) | 0.94 µM (active) | 0.975 µM (active) | 0.991 µM (active) | 0.861 µM (active) | 0.687 µM (active) |  | 0.348 µM (active) | 0.841 µM (active) | 0.571 µM (active) | 1.13 µM (inactive) | 0.318 µM (active) | 0.675 µM (active) | 1.07 µM (active) |
| O=C1c2ccccc2C(=O)C1C(c1ccc([N+](=O)[O-])cc1)C1C(=O)c2ccccc2C1=O | > 100 µM (inactive) | 58.3 µM (inactive) | 34.8 µM (inactive) | > 100 µM (inactive) | 90.8 µM (inactive) | 36.9 µM (inactive) | > 100 µM (inactive) | 34.9 µM (inactive) | 63.4 µM (inactive) | > 100 µM (inactive) | > 100 µM (inactive) | > 100 µM (inactive) | > 100 µM (inactive) | 30.3 µM (inactive) | 44.7 µM (inactive) | 38.6 µM (inactive) |
| O=c1nc(NC(c2ccccc2)(c2ccccc2)c2ccccc2)ccn1CCNCCn1ccc(NC(c2ccccc2)(c2ccccc2)c2ccccc2)nc1=O | 14.1 µM (inactive) | 2.41 µM (inactive) | 15.5 µM (inactive) | 5.83 µM (inactive) | 3.44 µM (inactive) |  | 11.8 µM (inactive) | 12.5 µM (inactive) | 4.66 µM (inactive) | 5.48 µM (inactive) | 19.6 µM (inactive) | 9.27 µM (inactive) | 26.9 µM (inactive) | 4.33 µM (inactive) | > 100 µM (inactive) | 20.2 µM (inactive) |
| CC1CC2C(=O)N(c3ccccc3)C(=O)C2c2c1c1ccccc1n2Cc1ccccc1 (configuration not stated) | > 100 µM (inactive) | 10.5 µM (inactive) | > 100 µM (inactive) | > 100 µM (inactive) | 7.52 µM (inactive) | 58.5 µM (inactive) | > 100 µM (inactive) |  | 17.7 µM (inactive) | > 100 µM (inactive) | > 100 µM (inactive) |  |  |  | > 100 µM (inactive) |  |
| C1=C(c2ccccc2)CN(c2ccccc2)OC1 | > 100 µM (inactive) | 54.8 µM (inactive) | > 100 µM (inactive) | 44.4 µM (inactive) | > 100 µM (inactive) | 74.5 µM (inactive) | > 100 µM (inactive) | 89.7 µM (inactive) | 18.6 µM (inactive) |  | > 100 µM (inactive) | > 100 µM (inactive) | > 100 µM (inactive) | > 100 µM (inactive) | 32.2 µM (inactive) | 66.4 µM (inactive) |
| CCOC(=O)CC[C@H](NC(=O)c1nc[nH]c1[N+](=O)[O-])C(=O)OCC | > 100 µM (inactive) | > 100 µM (inactive) | > 100 µM (inactive) |  | > 100 µM (inactive) | > 100 µM (inactive) | > 100 µM (inactive) | > 100 µM (inactive) | > 100 µM (inactive) |  | > 100 µM (inactive) | > 100 µM (inactive) | > 100 µM (inactive) | > 100 µM (inactive) | > 100 µM (inactive) |  |
| CCCCCCCCCCCC(=O)OCC1OC(n2cc(F)c(=O)[nH]c2=O)C(N)C(OC(=O)CCCCCCCCCCC)C1O (configuration not stated) | > 100 µM (inactive) | 29.6 µM (inactive) | > 100 µM (inactive) | > 100 µM (inactive) | 45.4 µM (inactive) | 27 µM (inactive) | > 100 µM (inactive) | > 100 µM (inactive) | 31.6 µM (inactive) | 0.59 µM (active) | > 100 µM (inactive) | > 100 µM (inactive) | > 100 µM (inactive) | > 100 µM (inactive) | > 100 µM (inactive) | 49.7 µM (inactive) |
| O=C(CCc1nnc(S)[nH]1)Nc1ccccc1Cl | > 100 µM (inactive) | > 100 µM (inactive) | > 100 µM (inactive) | > 100 µM (inactive) | > 100 µM (inactive) | > 100 µM (inactive) | > 100 µM (inactive) | > 100 µM (inactive) | > 100 µM (inactive) | > 100 µM (inactive) | > 100 µM (inactive) | > 100 µM (inactive) | > 100 µM (inactive) | > 100 µM (inactive) | > 100 µM (inactive) | > 100 µM (inactive) |
